Experimental data from patent publication US9593305B2, “Differentiation of pluripotent stem cells” (Janssen Biotech, Inc., priority 2008, dated 2017).

B1: GDF10: member of the GDF family of proteins (R&D Systems) (protein, UniProt P55107 369-478, looked up)
Growth/differentiation factor …: QWDEPRVCSRRYLKVDFADIGWNEWIISPKSFDAYYCAGACEFPMPKIVRPSNHATIQSIVRAVGIIPGIPEPCCVPDKMNSLGVLFLDENRNVVLKVYPNMSVDTCACR
B2: GDF15: member of the GDF family of proteins (R&D Systems) (protein, UniProt Q99988 195-308, looked up)
Growth/differentiation factor …: ARARNGDHCPLGPGRCCRLHTVRASLEDLGWADWVLSPREVQVTMCIGACPSQFRAANMHAQIKTSLHRLKPDTVPAPCCVPASYNPMVLIQKTDTGVSLQTYDDLLAKDCHCI
B3: BMP3: growth factor protein, R&D Systems (protein, UniProt P12645 363-472, looked up)
Bone morphogenetic protein 3: QWIEPRNCARRYLKVDFADIGWSEWIISPKSFDAYYCSGACQFPMPKSLKPSNHATIQSIVRAVGVVPGIPEPCCVPEKMSSLSILFFDENKNVVLKVYPNMTVESCACR
B4: GDF11: member of the GDF family of proteins (PeproTech) (protein, UniProt O95390 299-407, looked up)
Growth/differentiation factor …: NLGLDCDEHSSESRCCRYPLTVDFEAFGWDWIIAPKRYKANYCSGQCEYMFMQKYPHTHLVQQANPRGSAGPCCTPTKMSPINMLYFNDKQQIIYGKIPGMVVDRCGCS

Legend:
Type in all cases: cell-based
[1] = tested on: H1 human embryonic stem cells; experiment: Secondary assay: compound combined with individual growth factors or small molecules, no activin A (Example 5, Table 4); conditions: agent combined with 2.5 μM compound and Wnt3a, no activin A
Procedure: Clusters of H1 human embryonic stem cells were grown on reduced growth factor […]™ (Invitrogen; Cat #356231)-coated tissue culture plastic. Cells were passaged using collagenase (Invitrogen; Cat #Cat #17104-019) treatment and gentle scraping, washed to remove residual enzyme, and plated with even dispersal at a ratio of 1:1 (surface area) on reduced growth factor […]™-coated 96-well black plates (Packard ViewPlates; PerkinElmer; Cat #6005182) using volumes of 100 μl/well. Cells were allowed to attach as clusters and then recover log phase growth over a 1 to 3 day period, feeding daily with MEF conditioned medium supplemented with 8 ng/ml bFGF (R&D Systems; Cat #233-FB). Plates were maintained at 37° C., 5% CO2 in a humidified box throughout the duration of assay.
Other agents tested were purchased as follows: BMP-7 (Sigma; Cat #B1434), LY294002 (Cayman; Cat 70920), PD98059, U0126, U0124 (EMD Biosciences; Cat #453710), muscimol (Tocris; Cat #0289), biuculline (Tocris; Cat #0130), sodium butyrate (Sigma; Cat #B5887). All growth factors were solubilized in PBS with 0.1% BSA (Sigma; Cat #A7888) and stored frozen at −80° C. Small molecules were solubilized in 100% DMSO (Sigma; Cat #D2650) and stored frozen at −80° C. The compounds were available as 5 mM stocks in 96-well plate format, solubilized in 100% DMSO and stored at −80° C. The compounds of the present invention were further diluted to an intermediate concentration of 0.2 mM in 50 mM HEPES (Invitrogen; Cat #15630-080), 20% DMSO and stored at 4° C. All growth factors and inhibitors were prepared in a deep well, 96-well polypropylene plate, diluted to 5× intermediate stocks in DMEM:F12 base medium at the beginning of assay and stored at 4° C.
A secondary screening assay was conducted, testing in triplicate and feeding on alternate days over the four-day assay timeframe. Assays were initiated by aspirating culture medium from each well followed by three washes in PBS to remove residual growth factors and serum. Test volumes of 80 μl per well were added back containing DMEM:F12 base medium (Invitrogen; Cat #11330-032) supplemented with 0.625% FCS (HyClone; Cat #SH30070.03), 25 ng/ml Wnt3a (R&D Systems), and 3.125 μM compound plus 20 μl 5× stock of growth factor or small molecule to yield a final concentration of 0.5% FCS, 20 ng/ml Wnt3a, and 2.5 μM compound. […] Final assay concentrations of small molecules tested were as follows: muscimol (20 μM), PD98059 (1 μM), LY294002 (2.5 μM), 00124 (1 μM), U0126 (1 μM), sodium butyrate (0.5 mM). Positive control wells (100 μl/well) contained the same base medium supplemented with 0.5% FCS, 20 ng/ml Wnt3a and 100 ng/ml activin A. Negative control wells (100 μl/well) contained the same base medium with 0.5% FCS and 20 ng/ml Wnt3a, omitting activin A.
On day 3, wells were aspirated and fed with 80 μl DMEM:F12 base medium supplemented with 2.5% FCS (HyClone) and 3.125 μM cyclic aniline-pyridinotriazine compound plus 20 μl 5× stock of growth factors or small molecules per well to yield a final concentration of 2% FCS and 2.5 μM compound (omitting Wnt3a) and as denoted on day one for all remaining growth factors or small molecules. Positive control wells (100 μl/well) contained the same base medium supplemented with 2% FCS and 100 ng/ml activin A, omitting Wnt3a. Negative control wells (100 μl/well) contained the same base medium with 2% FCS, omitting both activin A and Wnt3a.
At the conclusion of four-days of culture, assay plates were washed twice with PBS, fixed with 4% paraformaldehyde (Alexis Biochemical; Cat #ALX-350-011) at room temperature for 20 minutes, then washed three times with PBS and permeabilized with 0.5% Triton X-100 (Sigma; Cat #T8760-2) for 20 minutes at room temperature. Cells were washed again three times with PBS and blocked with 4% chicken serum (Invitrogen; Cat #16110082) in PBS for 30 minutes at room temperature.

[2] = tested on: H1 human embryonic stem cells; experiment: Definitive endoderm formation with TGF superfamily members, SOX17 and cell number (Example 14); conditions: dose titration with Wnt3a, Compound 34, or both
Procedure: Clusters were centrifuged at low speed to collect a cell pellet and remove residual dispase. […] All human embryonic stem cell lines were maintained at passage numbers less than 50 and routinely evaluated for normal karyotype and absence of mycoplasma.
Cells were washed again three times with PBS and blocked with 4% chicken serum (Invitrogen; Cat #16110082) in PBS for 30 minutes at room temperature. […] Plates were washed once with PBS and left in 100 μl/well PBS for imaging.

[3] = tested on: H1 human embryonic stem cells; experiment: Definitive endoderm formation with GDF family members, SOX17 and cell number (Example 13); conditions: 100 ng/ml GDF, alone or with Wnt3a, Compound 34 or Compound 56, four days
Procedure: Stock cultures of human embryonic stem cells (H1 human embryonic stem cell line) were maintained in an undifferentiated, pluripotent state on reduced growth factor […]™ (BD Biosciences; Cat #356231)-coated dishes in MEF conditioned medium with passage on average every four days. Passage was performed by exposing cell cultures to a solution of 1 mg/ml dispase (Invitrogen; Cat #17105-041) for 5 to 7 minutes at 37° C. followed by rinsing the monolayer with MEF conditioned culture medium and gentle scraping to recover cell clusters. Clusters were centrifuged at low speed to collect a cell pellet and remove residual dispase. Cell clusters were split at a 1:3 or 1:4 ratio for routine maintenance culture or a 1:1 ratio for immediate assay. All human ES cell lines were maintained at passage numbers less than 50 and routinely evaluated for normal karyotype and absence of mycoplasma.
Cell clusters were evenly resuspended in MEF conditioned medium supplemented with 8 ng/ml bFGF and seeded onto reduced growth factor […]™-coated 96-well Packard VIEWPLATES (PerkinElmer; Cat #6005182) in volumes of 0.1 ml/well. Daily feeding was conducted by aspirating spent culture medium from each well and replacing with an equal volume of fresh medium. Plates were maintained at 37° C., 5% CO2 throughout the duration of assay.
The assay was initiated by aspirating the culture medium from each well and adding back aliquots (100 μl) of test medium. Test conditions were performed in triplicate over a total four-day assay period, feeding on day 1 and day 3 by aspirating and replacing the medium from each well with fresh test medium. Various members of the GDF family of proteins were obtained for testing as follows: GDF-3 (PeproTech; Cat #120-22); GDF-5 (DePuy Orthopaedics, Inc., a Johnson & Johnson company); GDF-8 (R&D Systems; Cat #788-G8); GDF-10 (R&D Systems; Cat #1543-BP); GDF11 (PeproTech; Cat #120-11); GDF-15 (R&D Systems; Cat #957-GD). On the first day of assay, all wells received an aliquot (80 μl) of basal medium DMEM:F12 medium (Invitrogen; Cat #11330-032) supplemented with 0.5% fetal bovine serum (Hyclone; Cat #SH30070.03). A series of five different control or experimental test samples was created to evaluate activin A or various GDFs in combination with Wnt3a or Compound 34 or Compound 56. These test samples were added in 20 μl aliquots (5× concentrated) to appropriately matched assay wells to yield a final assay volume of 100 μl in each well at the final assay conditions indicated. In the first set of control samples, the following conditions were tested: 1) no additive (i.e. no supplementary growth factor or small molecule); 2) 100 ng/ml activin A (PeproTech; Cat #120-14) in combination with 20 ng/ml Wnt3a (R&D Systems; Cat #1324-WN/CF); 3) 20 ng/ml Wnt3a alone; 4) Compound 34 alone (2.5 μM) without any growth factor or small molecule; 5) Compound 56 alone (2.5 μM) without any growth factor or small molecule. In the second set of test samples, the following conditions were tested in combination with 100 ng/ml GDF3: 1) no additive (i.e. GDF-3 alone); 2) 20 ng/ml Wnt3a; 3) 20 ng/ml Wnt3a with Compound 34 (2.5 μM); 4) Compound 34 (2.5 μM); 5) Compound 56 (2.5 μM); and 6) 20 ng/ml Wnt3a with Compound 56 (2.5 μM). In the third set of test samples, each of the six conditions was combined with 100 ng/ml GDF-5. In the fourth set of test samples, each of the six conditions was combined with 100 ng/ml GDF-8. In the fifth set of test samples, each of the six conditions was combined with 100 ng/ml GDF-10. In the sixth set of test samples, each of the six conditions was combined with 100 ng/ml GDF-11. In the seventh set of test samples, each of the six conditions was combined with 100 ng/ml GDF-15. On the third day of assay, all wells for all test samples, received 100 ng/ml Activin A or 100 ng/ml respective GDF growth factor, without Wnt3a or Compound 34 or Compound 56, diluted into DMEM:F12 medium supplemented with 2% FBS. […]

Molecule	induction of SOX17 expression compared to the Wnt3a treatment alone [2]	SOX17 expression, GDF growth factor substituting for activin A [3]	other results
BMP-4: member of the BMP family, R&D Systems	weak or negligible		effect on SOX17 expression [1]: inhibited or had negligible effects on SOX17 expression; cell numbers at the conclusion of assay [2]: significant effect on cell numbers
TGFβ-1: TGF superfamily growth factor, R&D Systems	weak or negligible		
B1		induced significant levels of SOX17 expression	
B2		induced significant levels of SOX17 expression	
B3	weak or negligible		
B4		induced significant levels of SOX17 expression	
